Key:
[1] = test system: Mouse macrophages (RAW264.7); assay: Toxicity to macrophages by MTT method; format: cell-based; settings: RAW264.7, MTT, 48 h culture with compound
Experimental: (1) the Toxicity to Macrophages was Tested by MTT Method:
Mouse macrophages (RAW264.7) were taken, inoculated into 96-well plates ([…]) at a concentration of 3×10^4/mL and cultured in an incubator of 5% CO2 at 37° C. for 18 h. After the cells adhered to the wall, the supernate was discarded and compounds of different concentrations were added to continue the culture for 48 h. 0.5 mg/mL of MTT was added. After continued culture for 4 h, […] of DMSO was added to each well, and then shaken on a shaker for 10 min. Absorbance (OD value) at 570 nm was measured by a microplate reader, and IC50 was calculated by Prism software.

[2] = test system: LPS-induced NO production in macrophages (RAW264.7); assay: Inhibition of LPS-induced NO production in macrophages; format: cell-based, mouse; parameters: dose or concentration left out as unconfirmed; settings: LPS-induced RAW264.7, 24 h
Experimental: In this test example, the styrene derivatives prepared by embodiments 2-20 were tested for their toxicities to mouse macrophages (RAW264.7). The nitric oxide (NO) inhibition assays using lipopolysaccharide (LPS)-induced RAW264.7 cells were also performed to evaluate their anti-inflammatory activities (Test methods refer to Zhou W. et al. Biomed Pharmacother 2020, 131:110696.).
(2) Inhibition of LPS-Induced NO Production Activity in Macrophages was Tested (the Test Method Refers to Biomed Pharmacother. 2020 November; 131:110696):
Mouse macrophages (RAW264.7) were taken, inoculated into 96-well plates ([…]) at a concentration of 5×10^5/mL and cultured in a 5% CO2 incubator at 37° C. for 18 h. Then, the compound (final concentration: […]) and LPS (final concentration: 5 µg/mL) were added into a cell culture solution and cultured at 37° C. for 24 h. Then, the supernatant of the cell culture solution was taken and placed into a new 96-well plate by 50 µL per well; and then 50 µL of solution A and 50 µL of solution B of a Beyotime NO kit were added.
After culturing in the incubator at 37° C. for 10 min, the absorbance (OD value) at 540 nm was tested.

| SMILES | IC50 ([1]; Mus musculus) [nM] | Inhibitory activity against nitric oxide production (%) [2] [%] | IC50 [1] [nM] |
| --- | --- | --- | --- |
| CC(C)c1c(O)cc(/C=C/c2ccoc2)cc1O [No 2] | > 1000 | <50 |  |
| CC(C)c1c(O)cc(/C=C/c2cncs2)cc1O [No 3] | > 1000 | >50 |  |
| CC(C)c1c(O)cc(/C=C/c2cscn2)cc1O [No 4] | > 1000 | <50 |  |
| Oc1cc(/C=C/c2ccsc2)cc(O)c1C1CC1 [No 5] | > 1000 | <50 |  |
| Oc1cc(/C=C/c2ccoc2)cc(O)c1C1CC1 [No 6] | > 1000 | <50 |  |
| Oc1cc(/C=C/c2ccsc2)cc(O)c1C1=CCCC1 [No 7] | > 1000 | <50 |  |
| Oc1cc(/C=C/c2cscn2)cc(O)c1C1=CCCC1 [No 9] |  | <50 | > 1000 |
| Oc1cc(/C=C/c2cncs2)cc(O)c1C1=CCCC1 [No 10] |  | <50 | > 1000 |
| Oc1cc(/C=C/c2ccsc2)cc(O)c1C1CCCC1 [No 11] | > 1000 | <50 |  |
| Oc1cc(/C=C/c2cscn2)cc(O)c1C1CCCC1 [No 12] | > 1000 | <50 |  |
| Oc1cc(/C=C/c2ccoc2)cc(O)c1Br [No 13] | > 1000 | <50 |  |
| C=C(C)c1c(O)cc(/C=C/c2cscn2)cc1O [No 16] | > 1000 | <50 |  |
| C=C(C)c1c(O)cc(/C=C/c2cncs2)cc1O [No 17] | > 1000 | <50 |  |
| COc1cc(/C=C/c2ccsc2)cc(O)c1C1CC1 [No 18] | > 1000 | >50 |  |
| COc1cc(/C=C/c2ccsc2)cc(O)c1Br [No 19] | > 1000 | >50 |  |
| COc1cc(/C=C/c2ccoc2)cc(O)c1C(C)C [No 20] |  | >50 | > 1000 |

Reference: patent US20260200882A1, “NOVEL FIVE-MEMBERED HETEROCYCLE SUBSTITUTED STYRENE DERIVATIVE, AND PREPARATION METHOD THEREFOR AND USE THEREOF” (Guangzhou Nanocrystal Biotechnology Co., Ltd., priority 2022, published 2026)
